Data taken from US8906925B2, “Pyrido[4,3-B]indoles containing rigid moieties” (Medivation Technologies, Inc., priority 2008, dated 2014).

How the values were obtained:
[1] = target: human dopamine D2L receptor (Homo sapiens, UniProt P14416); experiment: Dopamine D2L radioligand binding ([3H]Spiperone); settings: compound at 1 μM; […] [3H]Spiperone; read-out: Inhibition of ligand binding, Dopamine D2L (percent inhibition of specific binding)
Text: Non-specific binding was estimated in the presence of […] Haloperidol. Receptor proteins were filtered and washed, the filters were then counted to determine [^3H]Spiperone specifically bound. […] Biochemical assay results are presented as the percent inhibition of specific binding in Table 9.

histamine receptor H1 = histamine receptor H1 (Homo sapiens, UniProt P35367); experiment: Histamine H1 radioligand binding ([3H]Pyrilamine); settings: read-out: Histamine Binding (1 μM) H1, percent inhibition of specific binding, 1 μM
histamine receptor H1, sequence (P35367 whole entry): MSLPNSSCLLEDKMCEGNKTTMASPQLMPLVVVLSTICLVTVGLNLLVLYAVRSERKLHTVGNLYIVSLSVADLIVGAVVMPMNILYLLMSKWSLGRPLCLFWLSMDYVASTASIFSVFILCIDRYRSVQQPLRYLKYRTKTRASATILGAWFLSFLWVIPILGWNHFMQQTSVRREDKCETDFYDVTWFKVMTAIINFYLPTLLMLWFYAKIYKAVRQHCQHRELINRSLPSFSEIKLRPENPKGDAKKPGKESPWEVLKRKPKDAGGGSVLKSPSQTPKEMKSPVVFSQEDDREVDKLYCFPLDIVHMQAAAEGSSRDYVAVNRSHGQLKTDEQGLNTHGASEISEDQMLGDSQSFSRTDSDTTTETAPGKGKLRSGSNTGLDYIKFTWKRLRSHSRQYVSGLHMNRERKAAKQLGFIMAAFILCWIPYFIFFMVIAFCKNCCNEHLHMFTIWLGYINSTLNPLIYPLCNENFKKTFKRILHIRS
Method in brief: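 Values are percent inhibition of specific [3H]pyrilamine (1.2 nM) binding with compounds at ≤1 μM (1% DMSO vehicle); 180 min incubation at 25 °C, pH 7.4 Tris buffer, on CHO-expressed human H1 receptor; 1 μM pyrilamine defined nonspecific binding, bound ligand counted after filtration.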

human dopamine D2L receptor, sequence (P14416 whole entry): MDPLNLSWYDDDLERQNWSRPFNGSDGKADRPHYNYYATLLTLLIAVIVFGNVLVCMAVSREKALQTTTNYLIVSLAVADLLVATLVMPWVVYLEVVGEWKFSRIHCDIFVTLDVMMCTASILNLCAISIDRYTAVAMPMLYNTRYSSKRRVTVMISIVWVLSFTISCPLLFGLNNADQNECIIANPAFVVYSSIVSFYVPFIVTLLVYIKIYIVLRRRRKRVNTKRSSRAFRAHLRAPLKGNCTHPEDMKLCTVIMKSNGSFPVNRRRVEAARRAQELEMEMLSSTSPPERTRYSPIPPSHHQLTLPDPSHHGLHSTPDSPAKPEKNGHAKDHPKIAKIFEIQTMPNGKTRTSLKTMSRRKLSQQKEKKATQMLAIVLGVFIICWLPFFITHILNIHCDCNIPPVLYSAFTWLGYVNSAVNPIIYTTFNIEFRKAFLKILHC

SMILES | inhibition at 1 µM [1] [%] | inhibition at 1 µM (histamine receptor H1) [%]
C/C(=C\n1c2c(c3cc(Cl)ccc31)CN(C)[C@@H](C)C2)c1ccncc1 [compound 391, (S,E)-8-chloro-2,3-dimethyl-5-(2-(pyridin-4-yl)prop-1-enyl)-2,3,4,5-tetrahydro-1H-pyrido[4,3-b]indole] | 72 | 84
C/C(=C\n1c2c(c3cc(Cl)ccc31)CN(C)[C@H](C)C2)c1ccncc1 [compound 392, (R,E)-8-chloro-2,3-dimethyl-5-(2-(pyridin-4-yl)prop-1-enyl)-2,3,4,5-tetrahydro-1H-pyrido[4,3-b]indole] | 99 | 84
C/C(=C\n1c2c(c3cc(Cl)ccc31)CN(C)CC2)c1cc(C)nc(C)c1 [compound 393, (E)-8-chloro-5-(2-(2,6-dimethylpyridin-4-yl)prop-1-enyl)-2-methyl-2,3,4,5-tetrahydro-1H-pyrido[4,3-b]indole] | 99 | 69
C/C(=C\n1c2c(c3cc(Cl)ccc31)CN(C)CC2)c1ccnc(C)c1 [compound 394, (E)-8-chloro-2-methyl-5-(2-(2-methylpyridin-4-yl)prop-1-enyl)-2,3,4,5-tetrahydro-1H-pyrido[4,3-b]indole] | 99 | 75
C/C(=C\n1c2c(c3cc(Cl)ccc31)CN(CCCC(O)c1ccc(F)cc1)CC2)c1ccncc1 (centres unmarked) [compound 395, (E)-4-(8-chloro-5-(2-(pyridin-4-yl)prop-1-enyl)-3,4-dihydro-1H-pyrido[4,3-b]indol-2(5H)-yl)-1-(4-fluorophenyl)butan-1-ol] | 99 | 102
C/C(=C\n1c2c(c3cc(Cl)ccc31)CN(C(=O)OCc1ccccc1)CC2)c1ccncc1 [compound 396, (E)-benzyl 8-chloro-5-(2-(pyridin-4-yl)prop-1-enyl)-3,4-dihydro-1H-pyrido[4,3-b]indole-2(5H)-carboxylate] | 7 | 15
C/C(=C/n1c2c(c3cc(Cl)ccc31)CN(C)CC2)c1ccc(F)cc1 [compound 397, (Z)-8-chloro-5-(2-(4-fluorophenyl)prop-1-enyl)-2-methyl-2,3,4,5-tetrahydro-1H-pyrido[4,3-b]indole] | 80 | 89
C/C(=C\n1c2c(c3cc(Cl)ccc31)CN(CCCC1(c3ccc(F)cc3)OCCO1)CC2)c1ccncc1 [compound 398, (E)-8-chloro-2-(3-(2-(4-fluorophenyl)-1,3-dioxolan-2-yl)propyl)-5-(2-(pyridin-4-yl)prop-1-enyl)-2,3,4,5-tetrahydro-1H-pyrido[4,3-b]indole] | 97 | 95
C/C(=C\n1c2c(c3cc(C)ccc31)CN(C)CC2)c1cc(C)nc(C)c1 [compound 399, (E)-5-(2-(2,6-dimethylpyridin-4-yl)prop-1-enyl)-2,8-dimethyl-2,3,4,5-tetrahydro-1H-pyrido[4,3-b]indole] | 73 | 13
C/C(=C\n1c2c(c3cc(Cl)ccc31)CNCC2)c1ccncc1 [compound 402, (E)-8-chloro-5-(2-(pyridin-4-yl)prop-1-enyl)-2,3,4,5-tetrahydro-1H-pyrido[4,3-b]indole] | 87 | 15
C=CCN1CCc2c(c3cc(Cl)ccc3n2/C=C(\C)c2ccncc2)C1 [compound 406, (E)-2-allyl-8-chloro-5-(2-(pyridin-4-yl)prop-1-enyl)-2,3,4,5-tetrahydro-1H-pyrido[4,3-b]indole] | 96 | 74
CN1CCc2c(c3cc(Cl)ccc3n2C=C(c2ccccc2)c2ccccc2)C1 [compound 407, 8-chloro-5-(2,2-diphenylvinyl)-2-methyl-2,3,4,5-tetrahydro-1H-pyrido[4,3-b]indole] | 74 | 10
Cc1ccc2c(c1)c1c(n2C=C(c2ccccc2)c2ccccc2)CCN(C)C1 [compound 409, 5-(2,2-diphenylvinyl)-2,8-dimethyl-2,3,4,5-tetrahydro-1H-pyrido[4,3-b]indole] | 54 | 18
C/C(=C\n1c2c(c3cc(C)ccc31)CN(CCc1ccccc1)CC2)c1ccncc1 [compound 412, (E)-8-methyl-2-phenethyl-5-(2-(pyridin-4-yl)prop-1-enyl)-2,3,4,5-tetrahydro-1H-pyrido[4,3-b]indole] | 94 | 27
C/C(=C\n1c2c(c3cc(Cl)ccc31)CN(CCC(C)(C)O)CC2)c1ccc(F)cc1 [compound 414, (E)-4-(8-chloro-5-(2-(4-fluorophenyl)prop-1-enyl)-3,4-dihydro-1H-pyrido[4,3-b]indol-2(5H)-yl)-2-methylbutan-2-ol] | 100 | 61
CN1CCc2c(c3cc(Cl)ccc3n2/C=C/c2ccccc2)C1 [compound 415, (E)-8-chloro-2-methyl-5-styryl-2,3,4,5-tetrahydro-1H-pyrido[4,3-b]indole] | 95 | 97
Cc1ccc2c(c1)c1c(n2/C=C(\F)c2ccc(Br)nc2)CCN(C)C1 [compound 416, (Z)-5-(2-(6-bromopyridin-3-yl)-2-fluorovinyl)-2,8-dimethyl-2,3,4,5-tetrahydro-1H-pyrido[4,3-b]indole] | 20 | 91

The next lines start with the values.

inhibition at 1 µM [1] [%] | inhibition at 1 µM (histamine receptor H1) [%] | SMILES
97 | 49 | C/C(=C\n1c2c(c3cc(C)ccc31)CN(C)[C@H](C)C2)c1ccncc1 [compound 390, (R,E)-2,3,8-trimethyl-5-(2-(pyridin-4-yl)prop-1-enyl)-2,3,4,5-tetrahydro-1H-pyrido[4,3-b]indole]
94 | 22 | COCCCN1CCc2c(c3cc(C)ccc3n2/C=C(\C)c2ccncc2)C1 [compound 400, (E)-2-(3-methoxypropyl)-8-methyl-5-(2-(pyridin-4-yl)prop-1-enyl)-2,3,4,5-tetrahydro-1H-pyrido[4,3-b]indole]
57 | 8 | C/C(=C\n1c2c(c3cc(C)ccc31)CNCC2)c1ccncc1 [compound 401, (E)-8-methyl-5-(2-(pyridin-4-yl)prop-1-enyl)-2,3,4,5-tetrahydro-1H-pyrido[4,3-b]indole]
66 | 37 | C/C(=C(/C)n1c2c(c3cc(C)ccc31)CN(C)CC2)c1ccncc1 [compound 403, (E)-2,8-dimethyl-5-(3-(pyridin-4-yl)but-2-en-2-yl)-2,3,4,5-tetrahydro-1H-pyrido[4,3-b]indole]
88 | 67 | C=CCN1CCc2c(c3cc(C)ccc3n2/C=C(\C)c2ccncc2)C1 [compound 405, (E)-2-allyl-8-methyl-5-(2-(pyridin-4-yl)prop-1-enyl)-2,3,4,5-tetrahydro-1H-pyrido[4,3-b]indole]
44 | 98 | C/C=C(/c1ccccc1)n1c2c(c3cc(C)ccc31)CN(C)CC2 [compound 408, (Z)-2,8-dimethyl-5-(1-phenylprop-1-enyl)-2,3,4,5-tetrahydro-1H-pyrido[4,3-b]indole]
55 | 0 | C/C(=C\n1c2c(c3cc(C)ccc31)CN(C=O)CC2)c1ccncc1 [compound 411, (E)-8-methyl-5-(2-(pyridin-4-yl)prop-1-enyl)-3,4-dihydro-1H-pyrido[4,3-b]indole-2(5H)-carbaldehyde]
60 | 16 | CO/C(=C\n1c2c(c3cc(C)ccc31)CN(C)CC2)c1ccncc1 [compound 413, (Z)-5-(2-methoxy-2-(pyridin-4-yl)vinyl)-2,8-dimethyl-2,3,4,5-tetrahydro-1H-pyrido[4,3-b]indole]
87 | 48 | C/C(=C/n1c2c(c3cc(Cl)ccc31)CN(C)CC2)c1ccncc1C [compound 417, (Z)-8-chloro-2-methyl-5-(2-(3-methylpyridin-4-yl)prop-1-enyl)-2,3,4,5-tetrahydro-1H-pyrido[4,3-b]indole]
14 | 33 | CO/C(=C(/C)n1c2c(c3cc(C)ccc31)CN(C)CC2)c1ccncc1 [compound 418, (Z)-5-(1-methoxy-1-(pyridin-4-yl)prop-1-en-2-yl)-2,8-dimethyl-2,3,4,5-tetrahydro-1H-pyrido[4,3-b]indole]
20 | 52 | Cc1ccc2c(c1)c1c(n2/C(=C(/F)c2ccc(C)nc2)c2ccc(C)nc2)CCN(C)C1 [compound 419]
29 | 13 | COc1ccc(/C(F)=C(/c2ccc(OC)nc2)n2c3c(c4cc(C)ccc42)CN(C)CC3)cn1 [compound 420, (E)-5-(2-fluoro-1,2-bis(6-methoxypyridin-3-yl)vinyl)-2,8-dimethyl-2,3,4,5-tetrahydro-1H-pyrido[4,3-b]indole]
79 | 93 | C/C(=C(/C)n1c2c(c3cc(C)ccc31)CN(C)CC2)c1ccc(F)cc1 [compound 421, (E)-5-(3-(4-fluorophenyl)but-2-en-2-yl)-2,8-dimethyl-2,3,4,5-tetrahydro-1H-pyrido[4,3-b]indole]
68 | 8 | C/C(=C\n1c2c(c3cc(C)ccc31)CN(CCF)CC2)c1ccncc1 [compound 422, (E)-2-(2-fluoroethyl)-8-methyl-5-(2-(pyridin-4-yl)prop-1-enyl)-2,3,4,5-tetrahydro-1H-pyrido[4,3-b]indole]
